Where two headings read alike, the source gives them in different places.
Legend:
MK-3 = MK-3 (Homo sapiens, UniProt Q16644); experiment: MK-3 inhibition IC50 (similar method to MK-2, with appropriate modifications); format: biochemical; settings: read-out: MK-3 Avg. IC50
MAPKAPK2 (MK-2) = MAPKAPK2 (MK-2) (Homo sapiens, UniProt P49137); experiment: Determination of MK-2 IC50 (HSP-peptide phosphorylation, anion exchange resin capture assay); format: biochemical
Method in brief: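 MAPKAPK2, preactivated by p38α with 0.25 mM ATP for 1 h at 30° C, used at 15 nM to phosphorylate HSP-peptide with 0.03 mM ATP plus [γ33P]ATP, pH 7.5, 2% DMSO, 30 min at 30° C. Labelled peptide counted after anion-exchange resin capture; IC50 from six ten-fold dilutions, triplicate.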

[1] = Table 1, phenoxypyrazole MK-2 inhibitors
[2] = Table 1, phenoxypyrazole MK-2 inhibitors, read-out: MK-2 Avg, IC50
[3] = Table 5, other cyclic pyrazole MK-2 inhibiting compounds
[4] = Table 5, other cyclic pyrazole MK-2 inhibiting compounds, read-out: MK-2 Avg. IC50
[5] = Table 2, pyrazolylpyrazole MK-2 inhibitors
[6] = Table 2, pyrazolylpyrazole MK-2 inhibitors, read-out: MK-2 Avg. IC50

Sequence of MK-3 (Q16644 whole entry, species assumed): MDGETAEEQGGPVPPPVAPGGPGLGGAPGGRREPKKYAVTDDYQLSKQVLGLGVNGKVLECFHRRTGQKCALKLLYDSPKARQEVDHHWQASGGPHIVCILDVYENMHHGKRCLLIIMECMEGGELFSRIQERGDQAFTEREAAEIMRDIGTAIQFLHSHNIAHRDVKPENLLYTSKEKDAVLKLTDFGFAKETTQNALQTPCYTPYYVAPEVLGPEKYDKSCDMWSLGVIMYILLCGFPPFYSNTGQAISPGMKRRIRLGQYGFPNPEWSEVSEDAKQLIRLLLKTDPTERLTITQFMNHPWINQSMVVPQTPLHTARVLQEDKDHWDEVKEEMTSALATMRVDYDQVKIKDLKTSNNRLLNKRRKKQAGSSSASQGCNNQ
Sequence of MAPKAPK2 (MK-2) (P49137 whole entry, species assumed): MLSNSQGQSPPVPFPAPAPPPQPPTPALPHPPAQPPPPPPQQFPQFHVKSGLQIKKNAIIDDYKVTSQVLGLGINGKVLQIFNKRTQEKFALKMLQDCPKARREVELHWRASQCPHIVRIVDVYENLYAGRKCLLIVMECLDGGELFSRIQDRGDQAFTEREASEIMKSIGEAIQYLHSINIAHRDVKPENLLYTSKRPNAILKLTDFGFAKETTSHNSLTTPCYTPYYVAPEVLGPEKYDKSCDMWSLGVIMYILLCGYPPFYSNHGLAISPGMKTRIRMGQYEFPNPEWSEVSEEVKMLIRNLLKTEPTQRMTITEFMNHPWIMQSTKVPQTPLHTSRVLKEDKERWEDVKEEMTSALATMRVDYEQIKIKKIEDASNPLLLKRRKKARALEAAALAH

SMILES | IC50 (MK-3) [µM] | IC50 (MAPKAPK2 (MK-2); read-out: MK-2 Avg. IC50) [µM] | IC50 (MK-3; [5]) [µM] | IC50 (MAPKAPK2 (MK-2); [6]) [µM] | other results
COc1cc2c(cc1-c1cccc([N+](=O)[O-])c1)-c1nn(CCCNC(=O)OC(C)(C)C)c(C(=O)O)c1CC2 [Example 37] | – | – | – | – | IC50 (MK-3; [1]): > 200 µM; IC50 (MAPKAPK2 (MK-2); [2]): 53.7 µM
NCCn1nc2c(c1C(=O)O)CCc1cnc(/C=C/c3ccccc3)cc1-2 [Example 37] | – | – | – | – | IC50 (MK-3; [3]): 1.21 µM; IC50 (MAPKAPK2 (MK-2); [4]): 0.0413 µM
O=C(O)c1c2c(nn1CCCNCCc1ccc(-c3ccncc3)cc1)-c1ccncc1CC2 [Example 37] | 7.71 | 0.211 | – | – | –
O=C(O)c1c2c(nn1CCO)-c1cn[nH]c1CC2 [Example 37] | – | – | ≥ 200 | 139 | –
CC(C)(C)OC(=O)NCCn1nc2c(c1C(=O)O)CCc1c-2cnn1C(c1ccccc1)(c1ccccc1)c1ccccc1 [Example 38] | – | – | ≥ 200 | 139 | –
CCOC(=O)c1c2c(nn1CCCN)-c1cc(/C=C/c3ccccc3)ncc1CC2 [Example 38] | – | – | – | – | IC50 (MK-3; [3]): > 20 µM; IC50 (MAPKAPK2 (MK-2); [4]): 3.61 µM
COc1cc2c(cc1-c1cccc(C#N)c1)-c1nn(CCCNC(=O)OC(C)(C)C)c(C(=O)O)c1CC2 [Example 38] | – | – | – | – | IC50 (MK-3; [1]): > 200 µM; IC50 (MAPKAPK2 (MK-2); [2]): 56.2 µM
O=C(O)c1c2c(nn1CCCNCCCc1ccc(Br)cc1)-c1ccncc1CC2 [Example 38] | 10.3 | 0.22 | – | – | –
CC(C)(C)c1ccc(CCCNCCCn2nc3c(c2C(=O)O)CCc2cnccc2-3)cc1 [Example 39] | 11.6 | 0.234 | – | – | –
CONC(=O)c1[nH]nc2c1CCc1[nH]ncc1-2 [Example 39] | – | – | 180 | 141 | –
Cn1nc(C(=O)O)c2c1-c1ccc(O)cc1CC2 [Example 39] | – | – | – | – | IC50 (MK-3; [1]): > 200 µM; IC50 (MAPKAPK2 (MK-2); [2]): 56.2 µM
CC(C)c1cccc(-c2ccc(CCNCCCn3nc4c(c3C(=O)O)CCc3cnccc3-4)cc2)c1 [Example 40] | 16.1 | 0.245 | – | – | –
COc1cc2c(cc1CCc1ccc(Cl)cc1)-c1nn(CCCNC(=O)OC(C)(C)C)c(C(=O)O)c1CC2 [Example 40] | – | – | – | – | IC50 (MK-3; [1]): > 200 µM; IC50 (MAPKAPK2 (MK-2); [2]): 59.6 µM
NS(=O)(=O)c1ccc(-n2nc(C(=O)O)c3c2-c2cn[nH]c2CC3)cc1 [Example 40] | – | – | ≥ 200 | 145 | –
COc1cc2c(cc1-c1cccc(C(F)(F)F)c1)-c1nn(CCCNC(=O)OC(C)(C)C)c(C(=O)O)c1CC2 [Example 41] | – | – | – | – | IC50 (MK-3; [1]): > 200 µM; IC50 (MAPKAPK2 (MK-2); [2]): 63.8 µM
O=C(O)c1c2c(nn1CC(F)(F)F)-c1cn[nH]c1CC2 [Example 41] | – | – | ≥ 200 | 150 | –
O=C(O)c1c2c(nn1CCCNCCc1cccs1)-c1ccncc1CC2 [Example 41] | 15.7 | 0.269 | – | – | –
CN(C)c1ccc(-c2cc3c(cn2)CCc2c-3nn3c2C(=O)NCC3)cc1 [Example 42] | 36 | 0.272 | – | – | –
COc1cc2c(cc1-c1ccc(C(C)(C)C)cc1)-c1nn(CCCNC(=O)OC(C)(C)C)c(C(=O)O)c1CC2 [Example 42] | – | – | – | – | IC50 (MK-3; [1]): > 200 µM; IC50 (MAPKAPK2 (MK-2); [2]): 65.7 µM
O=C(O)c1nn(CC(F)(F)F)c2c1CCc1[nH]ncc1-2 [Example 42] | – | – | ≥ 200 | 180 | –
C=CCn1nc2c(c1C(N)=O)CCc1[nH]ncc1-2 [Example 43] | – | – | ≥ 200 | 181 | –
COc1ccc(-c2cc3c(cn2)CCc2c-3nn3c2C(=O)NCCC3)cc1OC [Example 43] | 15.8 | 0.288 | – | – | –
CCOC(=O)c1c2c(nn1CCCN)-c1c(SCc3ccccc3)n[nH]c1CC2 [Example 44] | – | – | ≥ 200 | 181 | –
COc1cc2c(cc1-c1cccc([N+](=O)[O-])c1)-c1nn(CCNC(=O)OC(C)(C)C)c(C(=O)O)c1CC2 [Example 44] | – | – | – | – | IC50 (MK-3; [1]): > 200 µM; IC50 (MAPKAPK2 (MK-2); [2]): 82.2 µM
O=C(O)c1c2c(nn1CCCNCCc1ccc(-c3ccccc3)cc1)-c1ccncc1CC2 [Example 44] | 5.01 | 0.316 | – | – | –
Nc1cc2c(cc1O)CCc1c-2nn2c1C(=O)NCCC2 [Example 45] | – | – | – | – | IC50 (MK-3; [1]): > 200 µM; IC50 (MAPKAPK2 (MK-2); [2]): 88.7 µM

SMILES | IC50 (MK-3) [µM] | IC50 (MAPKAPK2 (MK-2); read-out: MK-2 Avg. IC50) [µM] | IC50 (MK-3; [5]) [µM] | IC50 (MAPKAPK2 (MK-2); [6]) [µM] | other results
O=C(O)c1[nH]nc2c1CCc1[nH]ncc1-2 [Example 45] | – | – | ≥ 200 | 188 | –
CCOCn1ncc2c1CCc1c-2n[nH]c1C(N)=O [Example 46] | – | – | 145 | ≥ 200 | –
COc1cc2c(cc1-c1ccc(F)c(F)c1)-c1nn(CCCNC(=O)OC(C)(C)C)c(C(=O)O)c1CC2 [Example 46] | – | – | – | – | IC50 (MK-3; [1]): > 200 µM; IC50 (MAPKAPK2 (MK-2); [2]): 92.7 µM
O=C(O)c1c2c(nn1CCCNCCc1ccc(Br)cc1)-c1ccncc1CC2 [Example 46] | 10.7 | 0.325 | – | – | –
CCOC(=O)c1[nH]nc2c1CCc1c-2cnn1-c1ccccc1 [Example 47] | – | – | ≥ 200 | ≥ 200 | –
O=C(O)c1c2c(nn1CCCNCCc1ccc(Cl)cc1Cl)-c1ccncc1CC2 [Example 47] | 6.59 | 0.347 | – | – | –
CC1Cc2c(n[nH]c2C(=O)O)-c2ccc(O)cc21 (centres unmarked) [Example 48] | – | – | – | – | IC50 (MK-3; [1]): > 200 µM; IC50 (MAPKAPK2 (MK-2); [2]): 97.1 µM
CNC(=O)c1nn(-c2ccc(S(N)(=O)=O)cc2)c2c1CCc1c-2cnn1Cc1ccccc1 [Example 48] | – | – | ≥ 200 | ≥ 200 | –
O=C(O)c1c2c(nn1CCCNS(=O)(=O)Cc1ccccc1)-c1cc(-c3cnc4ccccc4c3)ncc1CC2 [Example 48] | 4.51 | 0.374 | – | – | –
COc1cc2c(cc1-c1ccc(Cl)cc1)-c1nn(CCCNC(=O)OC(C)(C)C)c(C(=O)O)c1CC2 [Example 49] | – | – | – | – | IC50 (MK-3; [1]): 161 µM; IC50 (MAPKAPK2 (MK-2); [2]): 98.1 µM
Cn1ncc2c1CCc1c-2n[nH]c1C(N)=O [Example 49] | – | – | ≥ 200 | ≥ 200 | –
NCC1Cn2nc3c(c2C(=O)N1)CCc1cnccc1-3 (centres unmarked) [Example 49] | 45.8 | 0.427 | – | – | –
CCOC(=O)c1[nH]nc2c1CCc1c-2cnn1C [Example 50] | – | – | ≥ 200 | ≥ 200 | –
NC(=O)c1[nH]nc2c1CCc1c-2cnn1-c1ccccc1 [Example 51] | – | – | ≥ 200 | ≥ 200 | –
NCCCn1nc2c(c1C(N)=O)CCc1cnc(-c3cnc4ccccc4c3)cc1-2 [Example 51] | 9.21 | 0.473 | – | – | –
CNC(=O)c1nn(-c2ccc(S(N)(=O)=O)cc2)c2c1CCc1[nH]ncc1-2 [Example 52] | – | – | ≥ 200 | ≥ 200 | –
COc1cc2c(cc1-c1ccccc1Cl)-c1nn(CCCNC(=O)OC(C)(C)C)c(C(=O)O)c1CC2 [Example 52] | – | – | – | – | IC50 (MK-3; [1]): > 200 µM; IC50 (MAPKAPK2 (MK-2); [2]): 109 µM
O=C(O)c1c2c(nn1CCCNCCCc1ccc(Cl)cc1)-c1ccncc1CC2 [Example 52] | 34.3 | 0.479 | – | – | –
CCOC(=O)c1[nH]nc2c1CCc1c-2ccc(O)c1Br [Example 53] | – | – | – | – | IC50 (MK-3; [1]): > 200 µM; IC50 (MAPKAPK2 (MK-2); [2]): 116 µM
CN(C)c1cccc(-c2cc3c(cn2)CCc2c-3nn3c2C(=O)NCCC3)c1 [Example 53] | 4.92 | 0.483 | – | – | –
NC(=O)c1nn(-c2ccccc2)c2c1CCc1c-2cnn1Cc1ccccc1 [Example 53] | – | – | ≥ 200 | ≥ 200 | –
CCOC(=O)c1nn(-c2ccccc2)c2c1CCc1[nH]ncc1-2 [Example 54] | – | – | ≥ 200 | – | IC50 (MAPKAPK2 (MK-2); MK-2 Avg. IC50 (uM), Table 2, pyrazolylpyrazole MK-2 inhibitors): ≥ 200 µM
CCOC(=O)c1nn(-c2ccccc2)c2c1CCc1c-2cnn1Cc1ccccc1 [Example 55] | – | – | ≥ 200 | ≥ 200 | –
Cc1noc(C)c1-c1cc2c(cc1O)CCc1c-2nn(CCCN)c1C(=O)O [Example 55] | – | – | – | – | IC50 (MK-3; [1]): 169 µM; IC50 (MAPKAPK2 (MK-2); [2]): 136 µM
O=C(O)c1c2c(nn1CCCNCCc1ccc(-c3cccnc3)cc1)-c1ccncc1CC2 [Example 55] | 11.2 | 0.522 | – | – | –
C=CCC1Cc2c(C(N)=O)n[nH]c2-c2ccc(O)cc21 (centres unmarked) [Example 56] | – | – | – | – | IC50 (MK-3; [1]): > 200 µM; IC50 (MAPKAPK2 (MK-2); [2]): 139 µM
